Experimental findings from US20090325857A1, “USE OF OPIOID RECEPTOR ANTAGONISTS” (priority 2006, published 2009) are described below.

What all share (format): cell-based, human
The subject of test [1] is hair follicle melanocytes (HFM). Briefly: Melanin content in hair follicle melanocytes (HFM). To be noted: 4 days incubation, baseline = 100%. An excerpt: Particularly, the activity of an agent in blocking an opioid receptor can be further determined by measuring the efficacy of the agent to cause a substantial increase of the total intracellular melanin production in human primary follicular melanocytes.
The effect of opioid antagonists on melanin production in hair follicular melanocytes can be measured in a cell-based in vitro assay.
Melanocytes are isolated and cultured from hair follicles derived from a normal adult scalp biopsy. Follicular melanocytes are passaged in T25 plastic culture flasks to maximum 4th to maximize in vivo-like behavior. Cells are seeded into flasks and after 2 days are incubated with test substances added to the cell growth medium. The experimental set-up includes flasks in which the cells are either not treated (control) or incubated for 4 days with the appropriate amount of opioid antagonists, to assess the effect on melanin production.
After 4 days incubation, control and treated cells are collected and melanin is extracted from lysed cells. Melanin is quantified by measuring the spectrophotometric OD at 475 nm and calculating against a standardized curve. The resulting value is standardized against the number of cells counted per treatment and is given as micrograms of melanin per million cells.
(§1) Melanocytes are isolated and cultured either from hair follicles or epidermal skin derived from a normal adult scalp biopsy. Follicular and epidermal melanocytes are passaged in T25 plastic culture flasks to maximum 4th to maximize in vivo-like behavior. Cells are seeded into flasks and after 2 days are incubated with test substances added to the cell growth medium. The experimental set-up includes flasks in which the cells are either not treated (control) or incubated for 4 days with the appropriate amount of opioid antagonists, to assess the effect on melanin production.
(§2) After 4 days incubation, control and treated cells are collected and melanin is extracted from lysed cells. Melanin is quantified by measuring the spectrophotometric OD at 475 nm and calculating against a standardized curve. The resulting value is standardized against the number of cells counted per treatment and is given as micrograms of melanin per million cells. As control known melanin production inducing references IBMX and full medium are used.

In test [2] the test system is hair follicle melanocytes. The test can be described thus: Proliferation of hair follicle melanocytes (direct cell counting, hemocytometry). To be noted: hair follicle cells, baseline = 100%. On the procedure:
as §1
(§3) Furthermore, the hair follicle cells were analysed for their proliferation and dentricity. Proliferation has been assessed by direct cell counting using hemocytometry. Cell dendricity has been assessed by phase contrast microscopy with representative photo documentation. It can be seen that the opioate receptor antagonists also have an effect on the proliferation and dentricity further supporting the use of the opiate receptor antagonists for the prevention of the graying of hair and/or for restoration and/or maintenance of the natural hair color

Test [3] has as its system hair follicle melanocytes. Briefly: Dendricity of hair follicle melanocytes (phase contrast microscopy). To be noted: hair follicle cells, baseline = 100%. On the procedure: as §1, §3
Test [4] relates to epidermal melanocytes (EM). The test can be described thus: Melanin content in epidermal melanocytes (EM). To be noted: 4 days incubation, baseline = 100%. On the procedure: as §1, §2

As to `CC(C)Cn1c(=O)n(C)c(=O)c2[nH]cnc21` [IBMX], in test [1] (concentration not given), the “Melanin content in HFM” value was 140%. The compound also had a Proliferation of melanocytes in test [2] (concentration not given) of 140%. Moreover, the Dentricity in test [3] (concentration not given) is reported as 148%.
Regarding `C=CCN1CC[C@]23c4c5ccc(O)c4O[C@H]2/C(=N/N=C2\CC[C@@]4(O)[C@H]6Cc7ccc(O)c8c7[C@@]4(CCN6CC=C)[C@H]2O8)CC[C@@]3(O)[C@H]1C5` [Naloxonazine], the “Melanin content in HFM” value is given as 120% in test [1] (1 μM) and 242% in test [1] (100 μM). In addition, the “Melanin content in EM” value in test [4] (1 μM) stood at 40%; in test [4] (100 μM), 25%. In test [2] (1 μM), this compound gave a Proliferation of melanocytes of 109%. This compound also had a Dentricity in test [3] (1 μM) of 105%.
`C=CCN1CC[C@]23c4c5ccc(O)c4O[C@H]2C(=O)CC[C@@]3(O)[C@H]1C5` [Naloxone]: the “Melanin content in EM” value in test [4] (1 μM) amounted to 61%; in test [4] (100 μM), 54%. In test [2] (1 μM), this compound gave a Proliferation of melanocytes of 123%. Also, the Dentricity is 110% in test [3] (1 μM) and 104% in test [3] (100 μM).
With “beta endorphin (YGGFMTSEKSQTPLVTLFKNAIIKNAYKKGE; Beta-endorphin; UniProt P01189 237-267, looked up) [μ-opiate agonist]”, the “Melanin content in HFM” value in test [1] (concentration not given) was found to be 92%.
